Drawing on patent US12398154B2, “Azaquinazoline pan-KRas inhibitors” (Mirati Therapeutics, Inc., priority 2020, dated 2025), this text covers IC50 for nine compounds.

Targets include KRas G12D (Homo sapiens, UniProt P01116, G12D); KRas G12V (Homo sapiens, UniProt P01116, G12V); KRas G12R (Homo sapiens, UniProt P01116, G12R).
Common to all, as to assay: biochemical

Bounds are passed on as bounds.

Chain of KRas G12V (P01116 1-169 isoform P01116-2 G12V): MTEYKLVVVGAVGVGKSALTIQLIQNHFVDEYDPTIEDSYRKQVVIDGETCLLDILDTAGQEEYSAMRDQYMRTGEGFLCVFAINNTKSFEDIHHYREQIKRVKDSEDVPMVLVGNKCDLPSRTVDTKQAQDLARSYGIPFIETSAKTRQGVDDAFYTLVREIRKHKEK
Chain of KRas G12D (P01116 1-169 isoform P01116-2 G12D): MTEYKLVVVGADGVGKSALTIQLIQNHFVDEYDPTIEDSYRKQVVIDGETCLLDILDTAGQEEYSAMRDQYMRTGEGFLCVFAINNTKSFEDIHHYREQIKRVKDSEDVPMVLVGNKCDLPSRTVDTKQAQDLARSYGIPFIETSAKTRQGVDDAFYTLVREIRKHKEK
Chain of KRas G12R (P01116 1-169 isoform P01116-2 G12R): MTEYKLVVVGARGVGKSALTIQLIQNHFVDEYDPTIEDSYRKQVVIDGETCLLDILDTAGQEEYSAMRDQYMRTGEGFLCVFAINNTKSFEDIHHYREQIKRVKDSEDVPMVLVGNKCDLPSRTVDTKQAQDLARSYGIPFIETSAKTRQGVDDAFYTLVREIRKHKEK

For `O=C1NCC2(CCCN(c3nc(OCC45CCCN4CCC5)nc4c(F)c(-c5cccc6cccc(F)c56)ncc34)C2)N1` (stereo not drawn) [Example 45, 7-(8-fluoro-7-(8-fluoronaphthalen-1-yl)-2-((hexahydro-1H-pyrrolizin-7a-yl)methoxy)pyrido[4,3-d]pyrimidin-4-yl)-1,3,7-triazaspiro[4.5]decan-2-one], the IC50 stood at 0.089 µM against KRas G12D, 0.189 µM against KRas G12V and 0.362 µM on KRas G12R.

Turning to `OC1CCC2(CCCN(c3nc(OCC45CCCN4CCC5)nc4c(F)c(-c5cccc6cccc(F)c56)ncc34)C2)C1` (stereo not drawn) [Example 47, 7-(8-fluoro-7-(8-fluoronaphthalen-1-yl)-2-((hexahydro-1H-pyrrolizin-7a-yl)methoxy)pyrido[4,3-d]pyrimidin-4-yl)-7-azaspiro[4.5]decan-2-ol], the IC50 is 63.4 µM on KRas G12D, 70.1 µM at KRas G12V and no less than 100 µM against KRas G12R.

As for `Fc1c(-c2cccc3cccc(F)c23)ncc2c(N3CCOCC3)nc(OCC34CCCN3CCC4)nc12` [Example 49, 4-(8-fluoro-7-(8-fluoronaphthalen-1-yl)-2-((tetrahydro-1H-pyrrolizin-7a(5H)-yl)methoxy)pyrido[4,3-d]pyrimidin-4-yl)morpholine], the figures for the IC50 at KRas G12D, on KRas G12V and on KRas G12R were 70 µM, 27.9 µM and 18.9 µM, respectively.

As for `Fc1c(-c2cccc3cccc(F)c23)ncc2c(N3CCSCC3)nc(OCC34CCCN3CCC4)nc12` [Example 50, 4-(8-fluoro-7-(8-fluoronaphthalen-1-yl)-2-((hexahydro-1H-pyrrolizin-7a-yl)methoxy)pyrido[4,3-d]pyrimidin-4-yl)thiomorpholine], the IC50 against KRas G12D came to 39 µM; against KRas G12V, 22.6 µM; at KRas G12R it was 22.7 µM.

Consider `CCc1c(F)ccc2cc(O)cc(-c3ncc4c(NCC5(O)CCCCC5)nc(OC[C@@]56CCCN5C[C@H](F)C6)nc4c3F)c12` [Example 52, 5-ethyl-6-fluoro-4-(8-fluoro-2-(((2R,7aS)-2-fluorohexahydro-1H-pyrrolizin-7a-yl)methoxy)-4-(((1-hydroxycyclohexyl)methyl)amino)pyrido[4,3-d]pyrimidin-7-yl)naphthalen-2-ol], for which the IC50 on KRas G12D amounted to 0.235 µM; at KRas G12V it was 0.025 µM; at KRas G12R, 0.039 µM.

As to `CC1(C)CCCN(c2nc(OCC34CCCN3CCC4)nc3c(F)c(-c4cccc5cccc(F)c45)ncc23)C1` [Example 53, 4-(3,3-dimethylpiperidin-1-yl)-8-fluoro-7-(8-fluoronaphthalen-1-yl)-2-((hexahydro-1H-pyrrolizin-7a-yl)methoxy)pyrido[4,3-d]pyrimidine], the IC50 against KRas G12D amounted to 66.4 µM; against KRas G12V, 49.4 µM; against KRas G12R it was 90.2 µM.

In the case of `CCc1cccc2cccc(-c3ncc4c(N5CCCC(C)(O)C5)nc(OCC56CCCN5CCC6)nc4c3F)c12` (stereo not drawn) [Example 54, 1-(7-(8-ethylnaphthalen-1-yl)-8-fluoro-2-((hexahydro-1H-pyrrolizin-7a-yl)methoxy)pyrido[4,3-d]pyrimidin-4-yl)-3-methylpiperidin-3-ol], the values for the IC50 on KRas G12D, against KRas G12V and on KRas G12R were 0.162 µM, 0.321 µM and 0.528 µM, respectively.

Consider `CC1(O)CCCN(c2nc(OCC34CCCN3CCC4)nc3c(F)c(-c4cccc5cccc(C#N)c45)ncc23)C1` (stereo not drawn) [Example 56, 8-(8-fluoro-2-((hexahydro-1H-pyrrolizin-7a-yl)methoxy)-4-(3-hydroxy-3-methylpiperidin-1-yl)pyrido[4,3-d]pyrimidin-7-yl)-1-naphthonitrile], for which the IC50 is 2.61 µM at KRas G12D, 3.76 µM against KRas G12V and 8.34 µM on KRas G12R.

As for `CC1(O)CCCN(c2nc(OCC34CCCN3CCC4)nc3c(F)c(-c4cccc5cccnc45)ncc23)C1` (stereo not drawn) [Example 66], the figures for the IC50 against KRas G12D, against KRas G12V and against KRas G12R were 26.9 µM, 44.5 µM and 67.8 µM, respectively.
